Measured values published in US20090197279A1, “MICROTUBULE SYNTHESIS AS A BIOMARKER” (KINEMED, INC., priority 2005, published 2009).
Entries after “also recorded” stand apart in the source; their conditions may differ.

Experiments:
[1] = tested on: hippocampal MT subpopulations; assay: Tubulin abundance of MT subpopulations in hippocampus by Western blot for α-tubulin; type: in vivo, mouse; conditions: 0.48 nmol glutamate ICVC; 24 hours; vs mock
Method: FIG. 7 depicts the effects of ICV glutamate on the relative amounts of MT subpopulations and on total protein synthesis in murine hippocampus. (A, B) Tubulin abundances are measured by Western blot analysis for α-tubulin at 8 hour (A) and 24 hours (B). Subpopulations were total extract (total), free tubulin dimers, tau-associated MTs, tau-nonassociated (MAP2/STOP) MTs and cold stable (CS) MTs. Mock and glutamate infused ICVC mice are shown (cf. FIGS. 6A and B). […] (C) Fractional synthesis of total hippocampal proteins. Glutamate increased protein synthesis versus mock-treated animals (*p<0.01); this effect was blocked by coadministration with 0.66 pmol of Rp-cAMP (**p<0.02).
(§1) Tubulin was purified using minor modifications of protocols described previously (Fanara, P., Oback, B., Ashman, K., Podtelejnikov, A., Brandt, R. Identification of MINUS, a small polypeptide that functions as a microtubule nucleation suppressor. EMBO J. 18, 565-577 (1999); Fanara, P. et al. In vivo measurement of microtubule dynamics using stable isotope labeling with heavy water. Effect of taxanes. J. Biol. Chem. 279, 49940-49947 (2004). Briefly, cultured neurons were gently scraped off culture plates, washed in phosphate-buffered saline (PBS), and homogenized in microtubule-stabilizing buffer. For purification ex vivo, mice were anesthetized with isoflurane and euthanized by cervical dislocation. Brains were rapidly removed and washed in microtubule-stabilizing buffer (MSB); hippocampi were dissected and gently homogenized in MSB. […] The relative abundance of tubulin in each preparation (Tubulin dimers and TAU5-bound, MAP2-bound, and unbound microtubule fractions) was quantified by Western blot, and tubulin from these fractions was further purified by ion exchange and size exclusion chromatography, as previously described (Fanara, P. et al. In vivo measurement of microtubule dynamics using stable isotope labeling with heavy water. Effect of taxanes. J. Biol. Chem. 279, 49940-49947 (2004)).

[2] = tested on: hippocampal tubulin dimers and microtubule subsets; assay: 2H label incorporation into hippocampal tubulin dimers and microtubule subsets during CFC (GC/MS); type: in vivo, mouse; conditions: conditioned mice, hippocampus
Text: FIG. 10 depicts microtubule/tubulin exchange during hippocampus-dependent contextual memory. (A) Protocol for measurement of microtubule/tubulin exchange during contextual fear conditioning (CFC). Tubulin dimers and microtubules subsets were labeled to plateau through continuous ^2H2O labeling, starting one day before CFC training. Labeling was continued throughout CFC training (Day 2) and the contextual conditioning test until mice were euthanized (Day 3). Vehicle or nocodazole treated-mice were injected 4 hours before CFC training, consisting of three pairings of conditioned and unconditioned stimuli inside an observation chamber, as described in Example 7 below. (B) CFC experiments were conducted in groups of naïve, vehicle- (50% cyclodextrin) and nocodazole-treated (0.2 mg/kg) mice (mean±SD, n=8 per each group), respectively. […] (C-E) ^2H label incorporation into hippocampal tubulin dimers and microtubule subsets was compared at sacrifice in the indicated experimental groups. Microtubule subpopulations were fractionated as described below, and the percentage of newly synthesized tubulin was quantified by GC/MS (mean±SD, n=3). (C) and (D) In vehicle-CFC trained mice, the increased freezing response corresponded with an increase in ^2H labeling of MAP2- and CS-associated MTs, compared to naïve control animals (§p<0.01 and §§p<0.05; two-way ANOVA). […] In (C-E), bars represent % new tubulin (mean±SD, n=3).
as §1, with “(2004)). […]” for “(2004)).”

Row | SMILES | abundance of CS-MTs, Western blot [1] | abundance of MAP2/STOP-MTs (MAP2-associated microtubules), Western blot [1] | abundance of tau-MTs, Western blot [1] | label incorporation into tau-associated microtubules ([2]; nocodazole 0.2 mg/kg vs basal levels in naïve and conditioned animals) | 2H incorporation into free tubulin dimers ([2]; nocodazole 0.2 mg/kg vs vehicle-treated controls) | label incorporation into MAP2-associated microtubules ([2]; nocodazole 0.2 mg/kg vs vehicle) | reduction of label incorporation into CS microtubules ([2]; nocodazole 0.2 mg/kg)
1 | N[C@@H](CCC(=O)[O-])C(=O)[O-].[K+].[K+] [glutamate, potassium L-glutamate] | increased | increased | remained unchanged |  |  |  | 
2 | COC(=O)Nc1nc2ccc(C(=O)c3cccs3)cc2[nH]1 [nocodazole] |  |  |  | reduced; also recorded: significant disassembly | increase | reversed; also recorded: significant disassembly | not statistically significant
